≈ marks a conversion by molar mass, not a printed value.
How the values were obtained:
Assay in all cases: ≥ marks a high value that may be exact or a test limit, other limits are often not marked, values filed in µg/mL are converted to µM
[1] = tested on: Erwinia amylovora PMV 6076
[2] = tested on: Pseudomonas syringae pv. syringae EPS 94
[3] = tested on: Xanthomonas campestris pv. Vesicatoria 2133-2
[4] = tested on: Escherichia coli ATCC 25922
[5] = tested on: Candida albicans ATCC 90028
Candida krusei ATCC 6258 = tested on: Candida krusei ATCC 6258
[6] = tested on: Candida parapsilosis ATCC 22019
[7] = tested on: Cryptococcus neoformans ATCC 90012
[8] = tested on: Pseudomonas aeruginosa ATCC 27853
Botrytis cinerea 101 = tested on: Botrytis cinerea 101
[9] = tested on: Staphylococcus aureus ATCC 9144
[10] = tested on: Vibrio anguillarum FT1801
Saccharomyces cerevisiae = tested on: Saccharomyces cerevisiae
[11] = tested on: Corynebacterium glutamicum ATCC 13032
Penicillium roqueforti = tested on: Penicillium roqueforti
[12] = tested on: Candida albicans ATCC 10231
Enterococcus faecium = tested on: Enterococcus faecium
[13] = tested on: Enterococcus faecalis ATCC 29212
[14] = tested on: Staphylococcus aureus K52
[15] = tested on: Staphylococcus aureus K35
[16] = tested on: Staphylococcus aureus ATCC 25923
[17] = tested on: Staphylococcus aureus Sa1390
[18] = tested on: Acinetobacter baumannii Ab5755
[19] = tested on: Escherichia coli ATCC 25726
[20] = tested on: Pseudomonas aeruginosa Pa1409
[21] = tested on: Acinetobacter baumannii Ab5753
[22] = tested on: Pseudomonas aeruginosa Pa4216
Escherichia coli Ec513 = tested on: Escherichia coli Ec513
Acinetobacter baumannii = tested on: Acinetobacter baumannii
[23] = tested on: Acinetobacter baumannii NM124
[24] = tested on: Acinetobacter baumannii NM8
[25] = tested on: Acinetobacter baumannii NM109
[26] = tested on: Acinetobacter baumannii NM75
[27] = tested on: Acinetobacter baumannii NM35
[28] = tested on: Acinetobacter baumannii Ab1408
[29] = tested on: Escherichia coli KCTC 1682
[30] = tested on: Salmonella typhimurium KCTC 1926
[31] = tested on: Trichosporon beigelii KCTC 7707
[32] = tested on: Staphylococcus epidermidis KCTC 1917
[33] = tested on: Candida albicans KCTC 7270
[34] = tested on: Staphylococcus aureus KCTC 1621
[35] = tested on: Saccharomyces cerevisiae KCTC 7296
[36] = tested on: Pseudomonas aeruginosa KCTC 1637
[37] = tested on: Bacillus subtilis KCTC 1918

Molecule `CC[C@H](C)[C@H](NC(=O)[C@H](CCCCN)NC(=O)[C@H](CCCCN)NC(=O)[C@H](Cc1ccccc1)NC(=O)[C@H](CC(C)C)NC(=O)[C@H](CCCCN)NC(=O)[C@@H](N)CCCCN)C(=O)N[C@@H](CC(C)C)C(=O)N[C@@H](CCCCN)C(=O)N[C@@H](Cc1ccc(O)cc1)C(=O)N[C@@H](CC(C)C)C(=O)N[C@@H](CCCCN)C(=O)N[C@@H](CC(=O)O)C(=O)N[C@@H](CCC(=O)O)C(=O)N[C@@H](CC(C)C)C(=O)O` [KKLFKKILKYLKDEL] has an MIC [1] of 3.54 µM (≈ 6.74 µg/mL), an MIC [2] of 3.54 µM (≈ 6.74 µg/mL) and an MIC [3] of 1.77 µM (≈ 3.37 µg/mL).
For `CC[C@H](C)[C@H](NC(=O)[C@H](Cc1ccccc1)NC(=O)[C@H](CC(N)=O)NC(=O)[C@H](CCCCN)NC(=O)[C@H](C)NC(=O)[C@@H](NC(=O)[C@H](CC(N)=O)NC(=O)[C@H](Cc1ccccc1)NC(=O)[C@H](C)NC(=O)[C@H](C)NC(=O)[C@H](CCCCN)NC(=O)CNC(=O)[C@H](CCCCN)NC(=O)[C@H](CCCCN)NC(=O)[C@H](CCCCN)NC(=O)[C@H](C)NC(=O)[C@@H](NC(=O)[C@H](CC(=O)O)NC(=O)[C@H](CC(C)C)NC(=O)[C@H](Cc1c[nH]c2ccccc12)NC(=O)CN)C(C)C)C(C)C)C(N)=O` [GWLDVAKKKGKAAFNVAKNFI], the MIC [4] was 8 µM (≈ 18.4 µg/mL), the MIC [5] was 16 µM (≈ 36.9 µg/mL) and the MIC (Candida krusei ATCC 6258) was 31 µM (≈ 71.4 µg/mL). For the same molecule, the MIC [6] was 31 µM (≈ 71.4 µg/mL), the MIC [7] was 31 µM (≈ 71.4 µg/mL) and the MIC [8] was 32 µM (≈ 73.8 µg/mL).
With `CC(C)C[C@H](NC(=O)[C@H](C)NC(=O)[C@H](Cc1cnc[nH]1)NC(=O)[C@H](C)NC(=O)[C@H](C)NC(=O)[C@H](C)NC(=O)[C@H](CS)NC(=O)[C@H](C)NC(=O)CNC(=O)[C@H](CCCN=C(N)N)NC(=O)[C@H](CC(C)C)NC(=O)[C@@H](N)CC(=O)O)C(=O)O` [DLRGACAAAHAL] the MIC (Botrytis cinerea 101) was ≥ 100 µM, the MIC [4] was > 100 µM and the MIC [9] was ≥ 100 µM. The MIC [10] was ≥ 100 µM, the MIC (Saccharomyces cerevisiae) was ≥ 100 µM and the MIC [11] was ≥ 100 µM. For the same molecule, the MIC (Penicillium roqueforti) was ≥ 100 µM and the MIC [12] was > 100 µM.
`CC(C)C[C@H](NC(=O)[C@H](C)NC(=O)CNC(=O)[C@H](CO)NC(=O)[C@H](CC(C)C)NC(=O)[C@@H](NC(=O)[C@H](CCCN=C(N)N)NC(=O)CNC(=O)[C@H](C)NC(=O)[C@H](CC(C)C)NC(=O)[C@@H]1CCCN1C(=O)[C@H](CC(C)C)NC(=O)[C@@H](N)Cc1ccccc1)C(C)C)C(N)=O` [FLPLAGRVLSGAL] was tested, and the MIC (Enterococcus faecium) was ≥ 99.8 µM, the MIC [13] was > 168 µM and the MIC [14] was ≥ 99.8 µM. The MIC [15] was ≥ 99.8 µM and the MIC [16] was > 168 µM.
`CC[C@H](C)[C@H](NC(=O)CN)C(=O)N[C@@H](Cc1c[nH]c2ccccc12)C(=O)N[C@@H](CCCCN)C(=O)N[C@H](C(=O)N[C@H](C(=O)N[C@@H](CCCCN)C(=O)N[C@@H](CO)C(=O)N[C@@H](CCSC)C(=O)NCC(=O)N[C@@H](CCCCN)C(=O)N[C@H](C(=O)N[C@@H](Cc1ccccc1)C(=O)N[C@@H](C)C(=O)NCC(=O)N[C@@H](CCCCN)C(=O)N[C@H](C(=O)N[C@@H](CC(C)C)C(=O)N[C@@H](CCC(N)=O)C(=O)N[C@@H](CC(N)=O)C(=O)N[C@@H](CC(C)C)C(N)=O)[C@@H](C)CC)C(C)C)[C@@H](C)CC)[C@@H](C)O` [GIWKTIKSMGKVFAGKILQNL] gave an MIC [17] of 6.86 µM (≈ 16 µg/mL), an MIC [18] of 1.71 µM (≈ 4 µg/mL) and an MIC [19] of 6.25 µM (≈ 14.6 µg/mL). The MIC [20] was 13.7 µM (≈ 32 µg/mL), the MIC [21] was 3.43 µM (≈ 8 µg/mL) and the MIC [22] was 13.7 µM (≈ 32 µg/mL). For the same molecule, the MIC (Escherichia coli Ec513) was 3.43 µM (≈ 8 µg/mL), the MIC (Acinetobacter baumannii) was 6.25 µM (≈ 14.6 µg/mL) and the MIC [23] was 1.5 µM (≈ 3.5 µg/mL). For the same molecule, the MIC [5] was 6 µM (≈ 14 µg/mL), the MIC [24] was 3 µM (≈ 7 µg/mL) and the MIC [25] was 1.5 µM (≈ 3.5 µg/mL). The MIC [26] was 3 µM (≈ 7 µg/mL), the MIC [27] was 3 µM (≈ 7 µg/mL) and the MIC [28] was 6.86 µM (≈ 16 µg/mL). For the same molecule, the MIC [16] was 12.5 µM (≈ 29.1 µg/mL).
`CC[C@H](C)[C@H](NC(=O)[C@H](CCCCN)NC(=O)[C@H](CO)NC(=O)[C@H](Cc1ccccc1)NC(=O)[C@H](CC(C)C)NC(=O)[C@H](CCCCN)NC(=O)[C@H](CCC(=O)O)NC(=O)[C@H](CC(C)C)NC(=O)[C@H](CCCN=C(N)N)NC(=O)[C@H](CCCCN)NC(=O)[C@H](Cc1ccccc1)NC(=O)[C@H](Cc1c[nH]c2ccccc12)NC(=O)[C@@H](N)CCCCN)C(N)=O` [KWFKRLEKLFSKI] was tested, and the MIC [29] was 3.12 µM (≈ 5.38 µg/mL), the MIC [30] was 0.78 µM (≈ 1.34 µg/mL) and the MIC [31] was 1.56 µM (≈ 2.69 µg/mL). The MIC [32] was 3.12 µM (≈ 5.38 µg/mL), the MIC [33] was 17.7 µM (≈ 30.4 µg/mL) and the MIC [34] was 1.56 µM (≈ 2.69 µg/mL). The MIC [35] was 6.25 µM (≈ 10.8 µg/mL), the MIC [36] was 1.56 µM (≈ 2.69 µg/mL) and the MIC [37] was 1.56 µM (≈ 2.69 µg/mL).

Reference: DBAASP
